Source: publication PMC6001238, “Iterative Chemical Engineering of Vancomycin Leads to Novel Vancomycin Analogs With a High in Vitro Therapeutic Index” (Frontiers in Microbiology, 2018)
In brackets after ≈: the same amount, converted by molar mass. Where two headings read alike, the source gives them in different places.

What was measured:
E. faecalis VSE 1 = assay: MIC, broth microdilution, vancomycin-sensitive E. faecalis (VSE 1); format: cell-based, Enterococcus faecalis
Outline: (§1)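 CLSI broth microdilution; water and uninoculated-broth controls; one arm supplemented with vancomycin, final 10 μM, given with analogue or control antibiotic.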

E. faecalis VRE 6 = assay: MIC, broth microdilution, vancomycin-resistant E. faecalis VRE 6 (VanA); format: cell-based, Enterococcus faecalis
Outline: as §1

E. faecalis VRE 53 = assay: MIC, broth microdilution, vancomycin-resistant E. faecalis VRE 53 (VanA); format: cell-based, Enterococcus faecalis
Outline: as §1

E. faecalis VRE 29 = assay: MIC, broth microdilution, vancomycin-resistant E. faecalis VRE 29 (VanA); format: cell-based, Enterococcus faecalis
Outline: as §1

E. faecalis VRE 37 = assay: MIC, broth microdilution, vancomycin-resistant E. faecalis VRE 37 (VanA); format: cell-based, Enterococcus faecalis
Outline: as §1

[1] = test system: Murine leukemia (L1210) cells; assay: Cytostatic activity, L1210 cell proliferation; format: cell-based; settings: Mus musculus, L1210, 48 h, read-out: Toxicity (IC50) L1210
Outline: (§2)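 Test compounds, serially diluted, received an equal volume of cell suspension at 300,000–500,000 cells/mL. After 37°C incubation (2 days for L1210, 3 for CEM, 4 for HeLa), cells were enumerated by Coulter counting and 50%-inhibitory concentrations calculated per cell type.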

[2] = test system: human T-lymphocyte (CEM) cells; assay: Cytostatic activity, CEM cell proliferation; format: cell-based; settings: Homo sapiens, CCRF-CEM, 72 h, read-out: Toxicity (IC50) CEM
Outline: as §2

[3] = test system: human cervix carcinoma (HeLa) cells; assay: Cytostatic activity, HeLa cell proliferation; format: cell-based; settings: Homo sapiens, HeLa, 96 h, read-out: Toxicity (IC50) HeLa
Outline: as §2

[4] = test system: L1210, CEM and HeLa cell lines; assay: Cytostatic activity, average or summary over L1210, CEM and HeLa; format: cell-based
Outline: as §2

[5] = test system: S. aureus VSSA (ATCC 6538); assay: MIC, broth microdilution, vancomycin-sensitive S. aureus (VSSA/MSSA, ATCC 6538); format: cell-based, Staphylococcus aureus
Outline: as §1

S. aureus VISA/HIP5827 = assay: MIC, broth microdilution, vancomycin-intermediate S. aureus VISA HIP5827; format: cell-based, Staphylococcus aureus
Outline: as §1

S. aureus VRSA = assay: MIC, broth microdilution, vancomycin-resistant S. aureus (VRSA); format: cell-based, Staphylococcus aureus
Outline: as §1

MRSA KS2 = assay: MIC, broth microdilution, MRSA KS2; format: cell-based, Staphylococcus aureus
Outline: as §1

MRSA KS6 = assay: MIC, broth microdilution, MRSA KS6; format: cell-based, Staphylococcus aureus
Outline: as §1

MRSA KS89 = assay: MIC, broth microdilution, MRSA KS89; format: cell-based, Staphylococcus aureus
Outline: as §1

MRSA KS1 = assay: MIC, broth microdilution, MRSA KS1; format: cell-based, Staphylococcus aureus
Outline: as §1

33 clinical VRE isolates = assay: MIC against a set of 33 clinical VRE isolates (range, MIC50, TI); format: cell-based, Enterococcus faecalis; settings: VRE; for TI (IC50/MIC50): in vitro therapeutic index
Outline: as §1

[6] = test system: 24 clinical MRSA isolates; assay: MIC against a set of 24 clinical MRSA isolates (range, MIC50, TI); format: cell-based, Staphylococcus aureus
Outline: as §1

[7] = test system: Clostridium difficile ATJ ribotype 014/20; assay: MIC, plate drop assay, C. difficile ATJ ribotype 014/20; format: cell-based
Outline: (§3)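 Lawns of each strain were made in soft BHI agar (0.4%) supplemented with CaCl2⋅2H2O and MgCl2⋅6H2O. Twofold compound dilutions (10 μL) were spotted, air-dried and incubated overnight at 37°C anaerobically; MIC read as cleared spots, in triplicate with water as negative control.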

[8] = test system: Clostridium difficile AIU ribotype 027; assay: MIC, plate drop assay, C. difficile AIU ribotype 027; format: cell-based
Outline: as §3

VE 148 (VanB) = assay: MIC, VanB-type VRE strain VE 148; format: cell-based, Enterococcus; settings: Enterococcus
Outline: as §1

VE 149 (VanB) = assay: MIC, VanB-type VRE strain VE 149; format: cell-based, Enterococcus; settings: Enterococcus
Outline: as §1

VE 150 (VanB) = assay: MIC, VanB-type VRE strain VE 150; format: cell-based, Enterococcus; settings: Enterococcus
Outline: as §1

VE 152 (VanB) = assay: MIC, VanB-type VRE strain VE 152; format: cell-based, Enterococcus; settings: Enterococcus
Outline: as §1

VE 157 (VanB) = assay: MIC, VanB-type VRE strain VE 157; format: cell-based, Enterococcus; settings: Enterococcus
Outline: as §1

VE 82 (VanC1) = assay: MIC, VanC1-type VRE strain VE 82; format: cell-based, Enterococcus gallinarum; settings: Enterococcus gallinarum
Outline: as §1

MRSA = assay: Minimum bactericidal concentration against MRSA; format: cell-based, Staphylococcus aureus
Method: Plates were incubated overnight at 37°C and colony growth was inspected.

## CN[C@H](CC(C)C)C(=O)N[C@H]1C(=O)N[C@@H](CC(N)=O)C(=O)N[C@H]2C(=O)N[C@H]3C(=O)N[C@H](C(=O)N[C@H](C(=O)O)c4cc(O)cc(O)c4-c4cc3ccc4O)[C@H](O)c3ccc(c(Cl)c3)Oc3cc2cc(c3O[C@@H]2O[C@H](CO)[C@@H](O)[C@H](O)[C@H]2O[C@H]2C[C@](C)(N)[C@H](O)[C@H](C)O2)Oc2ccc(cc2Cl)[C@H]1O [Vancomycin]
E. faecalis VSE 1; E. faecalis VSE 1, ratio of MIC of vancomycin and MIC of analogue
  MICvanc/MICi: 1
E. faecalis VSE 1; Enterococcus faecalis VSE 1 (vancomycin-sensitive), read-out: MIC
  MIC: 1.56 µM (≈ 2.26 µg/mL)
E. faecalis VSE 1; Enterococcus faecalis, VSE1
  MIC: 1.56 µM (≈ 2.26 µg/mL)
E. faecalis VSE 1; VSE 1, ratio of MIC of vancomycin and MIC of analogue
  MIC-fold improvement vs. vancomycin: 1
E. faecalis VRE 6; E. faecalis VRE 6, ratio of MIC of vancomycin and MIC of analogue
  MICvanc/MICi: 1
E. faecalis VRE 6; Enterococcus faecalis VRE 6 (vancomycin-resistant), read-out: MIC
  MIC: 200 µM (≈ 290 µg/mL)
E. faecalis VRE 6; Enterococcus faecalis, VRE
  MIC: 200 µM (≈ 290 µg/mL)
E. faecalis VRE 6; VRE 6, ratio of MIC of vancomycin and MIC of analogue
  MIC-fold improvement vs. vancomycin: 1
E. faecalis VRE 53; E. faecalis VRE 53, ratio of MIC of vancomycin and MIC of analogue
  MICvanc/MICi: 1
E. faecalis VRE 53; Enterococcus faecalis VRE 53 (vancomycin-resistant), read-out: MIC
  MIC: 400 µM (≈ 580 µg/mL)
E. faecalis VRE 53; Enterococcus faecalis, VRE
  MIC: 400 µM (≈ 580 µg/mL)
E. faecalis VRE 53; VRE 53, ratio of MIC of vancomycin and MIC of analogue
  MIC-fold improvement vs. vancomycin: 1
E. faecalis VRE 29; Enterococcus faecalis, VRE
  MIC: 400 µM (≈ 580 µg/mL)
E. faecalis VRE 29; VRE 29, ratio of MIC of vancomycin and MIC of analogue
  MIC-fold improvement vs. vancomycin: 1
E. faecalis VRE 37; Enterococcus faecalis, VRE
  MIC: 400 µM (≈ 580 µg/mL)
E. faecalis VRE 37; VRE 37, ratio of MIC of vancomycin and MIC of analogue
  MIC-fold improvement vs. vancomycin: 1
[1]
  IC50: > 250 µM
[2]
  IC50: > 250 µM
[3]
  IC50: > 250 µM
[4]
  IC50: 250 µM
[4]; read-out: IC50 (L1210, CEM, HeLa), depending on the cell line used
  IC50: > 250 µM
[4]; read-out: Toxicity (IC50) Average
  IC50: > 250 µM
[5]; Staphylococcus aureus, ATCC6538
  MIC: 0.78 µM (≈ 1.13 µg/mL)
[5]; VSSA, ratio of MIC of vancomycin and MIC of analogue
  MIC-fold improvement vs. vancomycin: 1
S. aureus VISA/HIP5827; Staphylococcus aureus, VISA
  MIC: 6.25 µM (≈ 9.06 µg/mL)
S. aureus VISA/HIP5827; VISA/HIP5827, ratio of MIC of vancomycin and MIC of analogue
  MIC-fold improvement vs. vancomycin: 1
S. aureus VRSA; Staphylococcus aureus VRSA
  MIC: 100 µM (≈ 145 µg/mL)
S. aureus VRSA; VRSA, ratio of MIC of vancomycin and MIC of analogue
  MIC-fold improvement vs. vancomycin: 1
MRSA KS2; MRSA KS2, ratio of MIC of vancomycin and MIC of analogue
  MIC-fold improvement vs. vancomycin: 1
MRSA KS2; Staphylococcus aureus, MRSA
  MIC: 0.78 µM (≈ 1.13 µg/mL)
MRSA KS6; MRSA KS6, ratio of MIC of vancomycin and MIC of analogue
  MIC-fold improvement vs. vancomycin: 1
MRSA KS6; Staphylococcus aureus, MRSA
  MIC: 0.78 µM (≈ 1.13 µg/mL)
MRSA KS89; MRSA KS8 (head; KS89 in title), ratio of MIC of vancomycin and MIC of analogue
  MIC-fold improvement vs. vancomycin: 1
MRSA KS89; Staphylococcus aureus, MRSA
  MIC: 0.78 µM (≈ 1.13 µg/mL)
MRSA KS1; MRSA KS1, ratio of MIC of vancomycin and MIC of analogue
  MIC-fold improvement vs. vancomycin: 1
MRSA KS1; Staphylococcus aureus, MRSA
  MIC: 0.78 µM (≈ 1.13 µg/mL)
33 clinical VRE isolates; Enterococcus
  MIC50: 800 µM (≈ 1160 µg/mL)
33 clinical VRE isolates
  TI (IC50/MIC50): 0.3
33 clinical VRE isolates; listed as vancomycin
  TI (IC50/MIC50): < 1
[6]; 24 clinical MRSA isolates
  MIC Range: 0.78 to 6.25 µM
[6]; Staphylococcus aureus, MRSA
  MIC50: 1.56 µM (≈ 2.26 µg/mL)
[6]; in vitro therapeutic index, MRSA
  TI (IC50/MIC50): 160
[7]; C. difficile ATJ ribotype 014/20
  MIC-fold improvement vs. vancomycin: 1
[7]; Clostridioides difficile, C. difficile ATJ ribotype 014/20, plate drop assay
  MIC: 35 µM (≈ 50.7 µg/mL)
[8]; C. difficile AIU ribotype 027
  MIC-fold improvement vs. vancomycin: 1
[8]; Clostridioides difficile, C. difficile AIU ribotype 027, plate drop assay
  MIC: 45 µM (≈ 65.2 µg/mL)
VE 148 (VanB)
  MIC: 100 µM (≈ 145 µg/mL)
VE 149 (VanB)
  MIC: 50 µM (≈ 72.5 µg/mL)
VE 150 (VanB)
  MIC: 100 µM (≈ 145 µg/mL)
VE 152 (VanB)
  MIC: 50 µM (≈ 72.5 µg/mL)
VE 157 (VanB)
  MIC: 100 µM (≈ 145 µg/mL)
VE 82 (VanC1)
  MIC: 3.13 µM (≈ 4.54 µg/mL)
MRSA
  MBC relative to MIC: MBC equaling their MIC values
